According to patent US10737072B2, “Control catheters and methods for pulmonary suffusion and related therapies” (SUFFUSION TECHNOLOGIES LLC, priority 2012, dated 2020):
Like-named read-outs stand apart in the source and are kept apart here.

Experiments:
[1] = test system: primary and metastatic cancer; conditions: et al., cited from earlier work
stage IV NSCLC [2] = conditions: cited from earlier work
[3] = test system: primary and metastatic cancer; conditions: et al., cited from earlier work; remark: listed apart in the source
stage IV NSCLC [4] = test: Thoracoscopic lung suffusion, phase I clinical trial; type: in vivo, human
Text: The term “suffusion” has been defined as the slow diffuse permeation of the tissues by an injectate during arterial or venous occlusion. Unlike methods for arterial infusion or isolated perfusion, those for suffusion require neither permanent occlusion nor recirculation. The technique involves isolating chemotherapy into the lung by interventional radiologic control of the pulmonary artery and endoscopic control of the pulmonary veins. The suffusion method was first described in a canine model in 2002. A minimally invasive approach and its short-term potential were established using a non-toxic tracer compound. Rapid permeation of the lung and 75% of tracer remaining isolated the lung for 30 minutes was observed.
One phase I clinical trial on four stage IV NSCLC patients has been conducted.

[5] = Schroder, 2002, 4 cases of metastatic sarcoma, following metastectomy
[6] = Burt, 2000, 8 cases of metastatic sarcoma
[7] = Hendriks, 2004, 16 cases of resectable pulmonary metastases, followed by metastectomy

In the case of N.N.[Cl][Pt][Cl] [Cisplatin], the “Interstitial and alveolar edema (number of cases)” value ([1]; Ratto, 1996, 6 cases of metastatic sarcoma) is listed as “(2) cases”, the “disease-free after 1 year” value [1, 5] is listed as 75% disease- and the “localized pulmonary edema (number of cases)” value [1, 5] is listed as “(4), reduced cases”. The “reduced pulmonary function at 3 weeks (number of cases)” value [1, 5] was “weeks (3) cases”, the “reduction in tumor volume” value (stage IV NSCLC [2]; Demmy, et al., 2009, 4 cases of stage IV NSCLC, with systemic chemotherapy) was 14%-96% and the Tumor volume reduced (stage IV NSCLC [2]; four stage IV NSCLC patients, systemic chemotherapy began within 2 weeks of the suffusion) was 14% to 96%. For the same molecule, the complete response ([3]; So, 2004, 3 cases of locally advanced NSCLC, and carinal resection) was 100% complete, the “patients who could not tolerate suffusion” value (stage IV NSCLC [4]; total of ten patients treated by suffusion (unpublished data)) was “One of 10” and the “patients with evaluable disease showing control or reduction of the main tumor in the suffused lung” value (stage IV NSCLC [4]; unpublished data, growth of tumor in other parts of the body despite systemic chemotherapy) was 4 of 5.
For COc1cccc2c1C(=O)c1c(O)c3c(c(O)c1C2=O)C[C@@](O)(C(=O)CO)C[C@@H]3O[C@H]1C[C@H](N)[C@H](O)[C@H](C)O1 [Doxorubicin], the “Pulmonary fibrosis (number of cases)” value [1, 6] is given as “fibrosis (1), cases”, the “reduced pulmonary function (number of cases)” value [1, 6] is given as “function (7) cases” and the response [1, 6] is given as 0% response.
In the case of CO[C@@]12[C@H](COC(N)=O)C3=C(C(=O)C(C)=C(N)C3=O)N1C[C@@H]1N[C@@H]12 [Mitomycin C], the “tumor volume reduced in” value ([3]; Neyazaki, 1969, 27 cases) is listed as 52%.
For N[C@@H](Cc1ccc(N(CCCl)CCCl)cc1)C(=O)O [Melphalan], the “Chemical pneumonitis (number of cases)” value [1, 7] is listed as “pneumonitis (2), cases”, the “localized pulmonary edema (number of cases)” value [1, 7] is listed as “(3), pneumonia cases” and the “pneumonia (number of cases)” value [1, 7] is listed as “(1), cases”. For the same molecule, the “pneumothorax (number of cases)” value [1, 7] was “pneumothorax (1) cases”.
